target: recombinantly expressed human PARP-1 enzyme (Homo sapiens, UniProt P09874); test: PARP enzyme assay (half-maximum inhibitor concentration); assay type: biochemical; details: DNA-activated PARP-1, 200 μM NAD, tritium-labeled NAD incorporation, room temperature, 1 hour, pH 8.0
Procedure: Pharmacological Investigations PARP Enzyme Assay
The half-maximum inhibitor concentration is determined by incubating the substances to be tested with the DNA-activated, recombinantly expressed and purified PARP-1 enzyme. Specifically, various concentrations of the test substance are incubated in 50 μl of reaction solution, which contains 50 mM Tris, 5 mM MgCl2, 1 mM DTT, 200 μM NAD, 0.1 mCi/ml tritium-labeled NAD, 0.1 mg/ml DNA, 0.1 mg/ml histones, 2 μg/ml recombinantly expressed human PARP-1 enzyme, pH=8.0, at room temperature for 1 hour. The reaction is stopped by adding 150 μl of 20% trichloroacetic acid, and the radiolabeled protein constituents are precipitated. After incubation on ice for 10 minutes, the labeled, insoluble constituents are separated off through a glass fiber filter and, after washing with 20% trichloroacetic acid three times, the radioactivity incorporated by the PARP-1 enzyme is measured by radioluminescence.
IC-50 values were determined in this way for the following compounds: […]

Sequence of recombinantly expressed human PARP-1 enzyme (P09874 whole entry): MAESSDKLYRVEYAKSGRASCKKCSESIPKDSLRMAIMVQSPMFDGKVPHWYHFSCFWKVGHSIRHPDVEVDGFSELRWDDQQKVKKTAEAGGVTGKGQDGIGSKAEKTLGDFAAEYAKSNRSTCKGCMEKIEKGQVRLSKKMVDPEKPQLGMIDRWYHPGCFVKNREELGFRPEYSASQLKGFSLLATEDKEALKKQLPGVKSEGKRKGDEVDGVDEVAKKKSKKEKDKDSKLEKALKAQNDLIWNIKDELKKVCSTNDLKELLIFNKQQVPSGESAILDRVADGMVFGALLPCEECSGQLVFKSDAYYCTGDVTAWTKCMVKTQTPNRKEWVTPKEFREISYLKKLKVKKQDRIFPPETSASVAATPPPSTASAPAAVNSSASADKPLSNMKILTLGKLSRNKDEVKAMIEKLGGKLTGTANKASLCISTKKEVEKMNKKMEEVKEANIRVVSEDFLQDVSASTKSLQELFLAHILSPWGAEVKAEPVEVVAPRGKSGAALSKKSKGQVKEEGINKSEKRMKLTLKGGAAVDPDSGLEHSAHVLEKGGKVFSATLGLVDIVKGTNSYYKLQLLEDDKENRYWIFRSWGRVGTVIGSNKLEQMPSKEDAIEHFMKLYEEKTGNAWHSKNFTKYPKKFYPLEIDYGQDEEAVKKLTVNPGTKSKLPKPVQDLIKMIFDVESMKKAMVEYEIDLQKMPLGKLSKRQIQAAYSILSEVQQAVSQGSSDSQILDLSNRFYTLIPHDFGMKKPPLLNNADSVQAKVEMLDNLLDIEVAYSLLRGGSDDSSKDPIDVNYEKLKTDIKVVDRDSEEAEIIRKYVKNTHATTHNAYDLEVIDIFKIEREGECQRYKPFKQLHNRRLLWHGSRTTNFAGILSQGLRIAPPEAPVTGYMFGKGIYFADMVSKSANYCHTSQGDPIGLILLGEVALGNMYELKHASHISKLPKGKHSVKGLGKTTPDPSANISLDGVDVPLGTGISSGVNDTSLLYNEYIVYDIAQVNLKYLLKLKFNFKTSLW

| SMILES | IC50 [nM] |
| --- | --- |
| CCOc1cccc(Nc2c[nH]c(=O)c3c2CCCC3)c1 [Example 11, 4-(3-ethoxyphenylamino)-5,6,7,8-tetrahydro-2H-isoquinolin-1-one] | 390 |
| Cc1[nH]c(=O)c2c(c1-c1cccs1)CCCC2 [Example 18, 3-methyl-4-thiophen-2-yl-5,6,7,8-tetrahydro-2H-isoquinolin-1-one] | 380 |
| Cn1c(CNCc2ccc(-c3c[nH]c(=O)c4c3CCCC4)o2)nc2ccccc21 [Example 55, 4-(5-{[(1-methyl-1H-benzoimidazol-2-ylmethyl)amino]methyl}furan-2-yl)-5,6,7,8-tetrahydro-2H-isoquinolin-1-one] | 4540 |
| O=C(NCCc1cccnc1)c1cncc(-c2c[nH]c(=O)c3c2CCCC3)c1 [Example 40, 5-(1-oxo-1,2,5,6,7,8-hexahydroisoquinolin-4-yl)-N-(2-pyridin-3-ylethyl)nicotinamide] | 4690 |
| NS(=O)(=O)c1ccc(CCNC(=O)c2cncc(-c3c[nH]c(=O)c4c3CCCC4)c2)cc1 [Example 44, 5-(1-oxo-1,2,5,6,7,8-hexahydroisoquinolin-4-yl)-N-[2-(4-sulf-amoylphenyl)ethyl]nicotinamide] | 8270 |
| O=c1[nH]cc(Nc2ccc(Cl)nc2)c2c1CCCC2 [Example 12, 4-(6-chloropyridin-3-ylamino)-5,6,7,8-tetrahydro-2H-isoquinolin-1-one] | 670 |
| O=C(NCC1CC(c2ccccc2)=NO1)c1cncc(-c2c[nH]c(=O)c3c2CCCC3)c1 (stereo not drawn) [Example 41, 5-(1-oxo-1,2,5,6,7,8-hexahydroisoquinolin-4-yl)-N-(3-phenyl-4,5-dihydroisoxazol-5-ylmethyl)-nicotinamide] | 3850 |
| Cc1[nH]c(=O)c2c(c1Nc1cccc(C(=O)N(C)C)c1)CCCC2 [Example 13, N,N-dimethyl-3-(3-methyl-1-oxo-1,2,5,6,7,8-hexahydroisoquinolin-4-ylamino)benzamide] | 80 |
| CC(=O)Nc1cccc(Nc2c[nH]c(=O)c3c2CCCC3)c1 [Example 5, N-[3-(1-oxo-1,2,5,6,7,8-hexahydroisoquinolin-4-ylamino)-phenyl]acetamide] | 390 |
| CS(=O)(=O)c1ccc(CNC(=O)c2cncc(-c3c[nH]c(=O)c4c3CCCC4)c2)cc1 [Example 42, N-(4-methanesulfonylbenzyl)-5-(1-oxo-1,2,5,6,7,8-hexahydroisoquinolin-4-yl)nicotinamide] | 1030 |
| CC(=O)Nc1cccc(Nc2c(C)[nH]c(=O)c3c2CCCC3)c1 [Example 17, N-[3-(3-methyl-1-oxo-1,2,5,6,7,8-hexahydroisoquinolin-4-ylamino)-phenyl]acetamide] | 140 |
| CCN1CCCC1CNC(=O)c1cncc(-c2c[nH]c(=O)c3c2CCCC3)c1 (stereo not drawn) [Example 49, N-(1-ethylpyrrolidin-2-ylmethyl)-5-(1-oxo-1,2,5,6,7,8-hexahydroisoquinolin-4-yl)nicotinamide] | 5110 |
| O=C(c1cccc(Nc2c[nH]c(=O)c3c2CCCC3)c1)N1CCN(CC2CC2)CC1 [Example 22, 4-[3-(4-Cyclopropylmethylpiperazine-1-carbonyl)phenylamino]-5,6,7,8-tetrahydro-2H-isoquinolin-1-one] | 330 |
| O=C(NCCc1ccncc1)c1cncc(-c2c[nH]c(=O)c3c2CCCC3)c1 [Example 43, 5-(1-oxo-1,2,5,6,7,8-hexahydroisoquinolin-4-yl)-N-(2-pyridin-4-ylethyl)nicotinamide] | 820 |
| Cc1[nH]c(=O)c2c(c1Nc1cccc(OC(F)(F)F)c1)CCCC2 [Example 14, 3-methyl-4-(3-trifluoromethoxy-phenylamino)-5,6,7,8-tetrahydro-2H-isoquinolin-1-one] | 1210 |
| Cc1[nH]c(=O)c2c(c1Nc1cccc(S(C)(=O)=O)c1)CCCC2 [Example 7, 4-(3-methanesulfonylphenyl-amino)-3-methyl-5,6,7,8-tetrahydro-2H-isoquinolin-1-one] | 300 |
| O=C(NCc1ccncc1)c1cncc(-c2c[nH]c(=O)c3c2CCCC3)c1 [Example 48, 5-(1-oxo-1,2,5,6,7,8-hexahydroisoquinolin-4-yl)-N-pyridin-4-ylmethylnicotinamide] | 3070 |
| Cc1cnc(CNC(=O)c2cncc(-c3c[nH]c(=O)c4c3CCCC4)c2)cn1 [Example 39, N-(5-methylpyrazin-2-ylmethyl)-5-(1-oxo-1,2,5,6,7,8-hexahydroisoquinolin-4-yl)nicotinamide] | 5890 |
| O=C(CNC(=O)c1cncc(-c2c[nH]c(=O)c3c2CCCC3)c1)c1ccccc1 [Example 26, 5-(1-oxo-1,2,5,6,7,8-hexahydroisoquinolin-4-yl)-N-(2-oxo-2-phenylethyl)nicotinamide] | 1470 |
| O=C(NCCNc1ncccn1)c1cncc(-c2c[nH]c(=O)c3c2CCCC3)c1 [Example 33, 5-(1-oxo-1,2,5,6,7,8-hexahydroisoquinolin-4-yl)-N-[2-(pyrimidin-2-ylamino)ethyl]nicotinamide] | 3690 |

More lines, now with the values ahead:

| IC50 [nM] | SMILES |
| --- | --- |
| 460 | O=C(NCc1ccc(-c2c[nH]c(=O)c3c2CCCC3)o1)c1ccco1 [Example 82, N-[5-(1-oxo-1,2,5,6,7,8-hexahydroisoquinolin-4-yl)furan-2-ylmethyl]furan-2-carboxamide] |
| 660 | CN1CCN(CNCc2ccc(-c3c[nH]c(=O)c4c3CCCC4)o2)CC1 [Example 73, 4-(5-{[(4-methylpiperazin-1-ylmethyl)amino]methyl}furan-2-yl)-5,6,7,8-tetrahydro-2H-isoquinolin-1-one] |
| 1530 | O=c1[nH]cc(-c2ccc(CNCc3ccccn3)o2)c2c1CCCC2 [Example 62, 4-(5-{[(pyridin-2-ylmethyl)amino]-methyl}furan-2-yl)-5,6,7,8-tetrahydro-2H-isoquinolin-1-one] |
| 420 | O=c1[nH]cc(-c2ccc(CNCCN3CCCC3)o2)c2c1CCCC2 [Example 57, 4-{5-[(2-pyrrolidin-1-ylethylamino)-methyl]furan-2-yl}-5,6,7,8-tetrahydro-2H-isoquinolin-1-one] |
| 1250 | COc1ccc(C(=O)NCc2ccc(-c3c[nH]c(=O)c4c3CCCC4)o2)cc1 [Example 83, 4-methoxy-N-[5-(1-oxo-1,2,5,6,7,8-hexahydroisoquinolin-4-yl)furan-2-ylmethyl]benzamide] |
| 990 | O=c1[nH]cc(-c2ccc(CNCc3cccnc3)o2)c2c1CCCC2 [Example 59, 4-(5-{[(pyridin-3-ylmethyl)amino]-methyl}furan-2-yl)-5,6,7,8-tetrahydro-2H-isoquinolin-1-one] |
| 1270 | O=c1[nH]cc(-c2ccc(CNCc3ccncc3)o2)c2c1CCCC2 [Example 58, 4-(5-{[(pyridin-4-ylmethyl)amino]-methyl}furan-2-yl)-5,6,7,8-tetrahydro-2H-isoquinolin-1-one] |
| 340 | O=c1[nH]cc(-c2ccc(CNCc3nc4ccccc4[nH]3)o2)c2c1CCCC2 [Example 68, 4-(5-{[(1H-benzimidazol-2-ylmethyl)amino]methyl}furan-2-yl)-5,6,7,8-tetrahydro-2H-isoquinolin-1-one] |
| 460 | CN(C)CCNCc1ccc(-c2c[nH]c(=O)c3c2CCCC3)o1 [Example 65, 4-{5-[(2-dimethylaminoethyl-amino)methyl]furan-2-yl}-5,6,7,8-tetrahydro-2H-isoquinolin-1-one] |
| 1450 | O=c1[nH]cc(-c2ccc(CN3CCN(c4ncccn4)CC3)o2)c2c1CCCC2 [Example 56, 4-[5-(4-pyrimidin-2-ylpiperazin-1-ylmethyl)furan-2-yl]-5,6,7,8-tetrahydro-2H-isoquinolin-1-one] |
